US10945978B2, “Treatment and diagnosis of melanoma” (The Rockefeller University, priority 2012, dated 2021)
Structures can show the parent of a compound that is named as a salt.

Key:
Extracellular ApoE = test: ApoE ELISA in conditioned media; assay type: cell-based, human; settings: MeWo cells; 1 μM, 72 hours
Protocol: Extracellular ApoE levels in serum-free conditioned media from melanoma cells treated with DMSO, GW3965, or T0901317 (1 μM each) were quantified using the ApoE ELISA kit (Innovative Research) at 72 hours following treatment.

[1] = system: MeWo human melanoma cells; test: Lung metastatic colonization by MeWo cells injected i.v. into NOD Scid mice; assay type: in vivo; settings: for reduction in lung metastatic colonization: chow 20 mg/kg starting 10 days prior to cell injection
Protocol: Melanoma cells used for in vivo metastasis assays were transduced with a stably expressed retroviral construct encoding a luciferase reporter gene (Ponomarev et al., 2004), allowing us to monitor the in vivo progression of melanoma cells by bioluminescence imaging. The following numbers of melanoma cells, resuspended in 100 μL of PBS, were injected intravenously via the tail-vein: 4×10^4 MeWo cells, 2.5×10^5 HT-144 cells, 2×10^5 SK-Mel-334.2 cells, 5×10^4B16F10 cells, and 1×10^5 YUMM cells. The MeWo, HT-144, and SK-Mel-334.2 cells were injected into 6-8 week-old sex-matched NOD scid mice, while the B16F10 and YUMM cells were injected into 6-8 week-old sex-matched C57BL/6 mice. In all experiments assessing at the effects of GW3965 on metastasis formation, mice were pre-treated on a control diet or a GW3965-supplemented diet (20 mg/kg) for 10 days. To assess the effect of GW3965 treatment on brain metastasis, 1×10^5 MeWo brain-metastatic derivatives were injected intracardially into athymic nude mice. Immediately following injection, mice were randomly assigned to a control diet or GW3965-supplemented diet (100 mg/kg). To determine whether oral delivery of GW3965 can inhibit the progression of incipient metastasis, NOD Scid mice were intravenously injected with 4×10^4 MeWo cells and the cells were allowed to colonize the lungs for 42 days, after which mice were blindedly assigned to a control diet or a GW3965-supplemented diet (100 mg/kg) treatment.

[2] = system: B16F10 mouse melanoma cells; test: Subcutaneous B16F10 tumor growth in C57BL/6 mice; settings: for suppression of tumor growth: 20 mg/kg
Protocol: Animals were palpated weekly for tumor formation, after which sizeable tumors were measured twice a week. Tumor volume was calculated as (small diameter)^2×(large diameter)/2.

ApoE = ApoE expression in mice fed LXR agonist diet (western blot, qRT-PCR); assay type: in vivo, mouse; settings: 10 days; for ApoE protein expression in systemic adipose, lung, and brain tissues: chow 20 mg/kg, western blot; for ApoE transcript levels in circulating white blood cells: diet 20 mg/kg, qRT-PCR
Protocol: Mouse lung and brain tissue samples were homogenized on ice in RIPA buffer (Sigma-Aldrich) supplemented with protease inhibitors (Roche). Mouse adipose tissue was homogenized on ice in TNET buffer (1.5 mM Tris pH 7.5, 150 mM NaCl, 2 mM EDTA 1% triton, protease inhibitors). Total protein lysate (2 jag) was separated by SDS-PAGE, transferred to PVDF membrane, and blotted with an anti-mouse ApoE (ab20874, Abcam) and anti-tubulin α/β (2148, Cell Signaling) antibodies. RNA was extracted from whole cell lysates using the Total RNA Purification Kit (17200, Norgen, Thorold, Canada). 600 ng of total RNA was then reverse transcribed into cDNA using the cDNA First-Strand Synthesis Kit (18080-051, Invitrogen), and quantitative real-time PCR amplification was performed as previously described (Pencheva et al., 2012) using an ABI Prism 7900HT Real-Time PCR System (Applied Biosystems, Austin, Tex.). Each PCR reaction was carried out in quadruplicates. Gene expression was normalized to GAPDH, which was used as an endogenous control.

[3] = system: melanoma cells (MeWo, MeWo-LM2, HT-144, SK-Mel-334.2) and endothelial cells; test: In vitro cell proliferation, viability and serum starvation assays; assay type: cell-based, human; parameters: melanoma cell or endothelial cell in vitro proliferation: dose or concentration left out as unconfirmed; settings: for cell proliferation or cell viability rates: MeWo, HT-144, SK-Mel-334.2, 1 μM, 5 days
Protocol: To determine the effects of miR-199a or miR-1908 over-expression and combinatorial LNA-induced miRNA inhibition on cell proliferation, 2.5×10^4 cells were seeded in triplicate in 6-well plates, and viable cells were counted after 5 days. […] Viable cells were counted after 8, 24, 48, 72, and 120 hours.
The number of viable cells was counter after 8, 16, and 24 hours.
To determine the effects of GW3965, T0901317, and Bexarotene on in vitro cell growth, 2.5×10^4 melanoma cells were seeded in triplicate in 6-well plates and cultured in the presence of DMSO, GW3965, T0901317, or Bexarotene at 1 μM each. After 5 days, the number of viable and dead cells was counted using the trypan blue dye (72-57-1, Sigma-Aldrich), which selectively labels dead cells.

[4] = system: ApoE promoter fused to ME.1 or ME.2; test: ApoE promoter activity assay (luciferase); assay type: cell-based, human; settings: MeWo cells; 1 μM, 24 hours
Text: The ApoE promoter, consisting of a sequence spanning 980 base pairs upstream and 93 base pairs downstream of the ApoE gene, was cloned into a pGL3-Basic vector (E1751, Promega Corporation, Madison, Wis.) upstream of the firefly luciferase gene using NheI and SacI restriction enzymes. Then, multi-enhancer elements 1 (ME. 1) and 2 (ME.2) were cloned directly upstream of the ApoE promoter using MluI and SacI restriction enzymes. To assess ApoE promoter- and ME.1/ME.2-driven transcriptional activation by LXR agonists, 5×10^4 MeWo cells were seeded into a 24-well plate. The following day, 100 ng of pGL3-ME. […] To assess transcriptional activation by LXRα or LXR(3, 5×10^4 MeWo cells expressing a control shRNA or shRNA targeting LXRα or LXRβ were seeded into a 24-well plate. The following day, 200 ng of pGL3-ME. 1/ME.2-ApoE promoter construct and 2 ng of pRL-CMV renilla luciferase were co-transfected into cells in the presence of DMSO, GW3965, or T0901317 at 1 μM, each condition in quadruplicate. After 24 hours, cells were lysed, and cell lysate was analyzed for firefly and renilla luciferase activity using the Dual Luciferase Assay System (E1960, Promega) and a Bio-Tek Synergy NEO Microplate Reader. Firefly luciferase signal was normalized to renilla luciferase signal and all data are expressed relative to the luciferase activity ratio measured in the DMSO-treated control cells.

[5] = system: B16F10, MeWo and SK-Mel-334.2 cells; test: Overall survival of mice bearing subcutaneous melanoma tumors; assay type: in vivo, mouse; settings: chow supplemented with GW3965 100 mg/kg after tumor establishment

## O=C(O)Cc1cccc(OCCCN(Cc2cccc(C(F)(F)F)c2Cl)CC(c2ccccc2)c2ccccc2)c1 [GW3965 2, 3-[3-[N-(2-Chloro-3-trifluoromethylbenzyl)-(2,2-diphenylethyl)amino]propyloxy] phenylacetic acid hydrochloride]
Extracellular ApoE
  levels of secreted ApoE protein: elevated levels
[1]; GW3965-supplemented chow
  survival times following metastatic colonization: significantly prolonged
[1]; GW3965 diet 100 mg/kg from d42
  suppression of colonization by incipient lung metastases: 28 fold
[1]; GW3965 diet 100 mg/kg from d42, lungs at d77
  number of macroscopic metastatic nodules: decreased
[1]; cells pre-treated with GW3965 1 μM for 48 hours
  reduction in metastatic colonization capacity: more than 50 fold
[1]; chow containing GW3965 20 mg/kg, oral
  in vivo melanoma metastasis (lung, bioluminescence): significant reduction
[1]; oral
  reduction in lung metastatic colonization: 31 fold
[2]; ApoE−/− mice, GW3965 diet 20 mg/kg, 7 days
  suppression of tumor growth in mice genetically inactivated for ApoE: completely ineffective
[2]; oral, from tumors of 5-10 mm3
  suppression of tumor growth: 67%
[2]; oral, 100 mg/kg, from tumors of 5-10 mm3
  reduction in tumor growth: 80%
[2]; tumors ~150 mm3, chow containing GW3965 150 mg/kg
  reduction in the growth of established large tumors: roughly 50%
ApoE
  ApoE protein expression in systemic adipose, lung, and brain tissues: significantly elevated
  ApoE transcript levels in circulating white blood cells: upregulated
[3]
  cell proliferation or cell viability rates: did not affect
[4]
  activity of luciferase reporter with ApoE promoter fused to ME.1 or ME.2: enhance
[5]
  overall survival time: substantially prolonged

## recombinant human ApoE: recombinant human ApoE3 (4696, BioVision)
[3]; MeWo-LM2 cells or endothelial cells, ApoE
  melanoma cell or endothelial cell in vitro proliferation: did not affect
[3]; MeWo-LM2 cells or endothelial cells, ApoE, 0.2% FBS
  survival in serum starvation conditions: did not affect

## O=S(=O)(c1ccccc1)N(CC(F)(F)F)c1ccc(C(O)(C(F)(F)F)C(F)(F)F)cc1 [T0901317 1]
Extracellular ApoE
  levels of secreted ApoE protein: elevated levels
[1]; oral
  reduction in lung metastatic colonization: 23 fold
[2]; oral, from tumors of 5-10 mm3
  suppression of tumor growth: 61%
ApoE
  ApoE protein expression in systemic adipose, lung, and brain tissues: significantly elevated
  ApoE transcript levels in circulating white blood cells: upregulated
[3]
  cell proliferation or cell viability rates: did not affect
[4]
  activity of luciferase reporter with ApoE promoter fused to ME.1 or ME.2: enhance
